Experimental data: ChEMBL document CHEMBL6153141, “Design, Synthesis, and Mechanism Study of Novel BMX Inhibitors Based on the Core of 1,3,5-Triazin-2-Amine for the Treatment of Gastric Carcinoma” (J Med Chem, 2025)
pIC50: −log10 of the molar value. The source made the active and inactive calls. No cut-off for these calls is given here.

How the values were obtained:
HGC-27 [1] = assay: Antitumor activity against human HGC-27 cells xenografted in female BALB/c nude mouse model assessed as reduction in tumor volume at 30 mg/kg/day, ip administered for 21 days; format: functional, organism-based; settings: time 21.0 day
HGC-27 [2] = assay: Anticancer activity against human HGC-27 cells assessed as inhibition of cell proliferation incubated for 72 hrs by MTT assay; format: functional, cell-based; settings: HGC-27, 72 h
MGC-803 [3] = assay: Anticancer activity against human MGC-803 cells assessed as inhibition of cell proliferation incubated for 72 hrs by MTT assay; format: functional, cell-based; settings: MGC-803, 72 h
MDA-MB-231 = assay: Anticancer activity against human MDA-MB-231 cells assessed as inhibition of cell proliferation incubated for 72 hrs by MTT assay; format: functional, cell-based; settings: MDA-MB-231, 72 h
HONE1 cell line = assay: Anticancer activity against human HONE1 cell line assessed as inhibition of cell proliferation incubated for 72 hrs by MTT assay; format: functional, cell-based; settings: HONE1, 72 h
C6661 = assay: Anticancer activity against human C666-1 cells assessed as inhibition of cell proliferation incubated for 72 hrs by MTT assay; format: functional, cell-based; settings: C6661, 72 h
HCT-116 = assay: Anticancer activity against human HCT-116 cells assessed as inhibition of cell proliferation incubated for 72 hrs by MTT assay; format: functional, cell-based; settings: HCT-116, 72 h
HGC-27 [4] = assay: Antiproliferative activity against human HGC-27 cells assessed as inhibition of cell viability incubated for 24 to 72 hrs by MTT assay; format: functional, cell-based; settings: dose <= 50.0 µM, time 24-72 hrs
MGC-803 [5] = assay: Antiproliferative activity against human MGC-803 cells assessed as inhibition of cell viability upto 50 uM by MTT assay; format: functional, cell-based; settings: time 24-72 hrs
HGC-27 [6] = assay: Antiproliferative activity against human HGC-27 cells assessed as reduction in number of EdU-positive cells incubated for 48 hrs by confocal laser scanning microscopic analysis; format: functional, cell-based; settings: dose 5-15 µM
MGC-803 [7] = assay: Antiproliferative activity against human MGC-803 cells assessed as reduction in number of EdU-positive cells incubated for 48 hrs by confocal laser scanning microscopic analysis; format: functional, cell-based; settings: dose 5-15 µM
MGC-803 [8] = assay: Anti-invasive activity in human MGC-803 cells assessed as decrease in invasion ability at 10 to 20 uM incubated for 48 hrs by transwell assay; format: functional, cell-based; settings: dose 10-20 µM
HGC-27 [9] = assay: Induction of apoptosis in human HGC-27 cells assessed as increase in apoptotic cells at 5 to 15 uM incubated for 48 hrs by Annexin V-FITC/PI staining based flow cytometric analysis; format: functional, cell-based; settings: dose 5-15 µM
MGC-803 [10] = assay: Induction of apoptosis in human MGC-803 cells assessed as increase in apoptotic cells at 10 to 20 uM incubated for 48 hrs by Annexin V-FITC/PI staining based flow cytometric analysis; format: functional, cell-based; settings: dose 10-20 µM
HGC-27 [11] = assay: Induction of apoptosis in human HGC-27 cells assessed as increase in cleaved PARP level incubated for 48 hrs by Western blot analysis; format: functional, cell-based; settings: dose 5-15 µM
MGC-803 [12] = assay: Cell cycle arrest in human MGC-803 cells assessed as accumulation of cells at G1 phase at 10 to 20 uM incubated for 48 hrs by flow cytometric analysis; format: functional, cell-based; settings: dose 10-20 µM
HGC-27 [13] = assay: Induction of autophagy in human HGC-27 cells assessed as decrease in p62 protein expression incubated for 48 hrs by Western blot analysis; format: functional, cell-based; settings: dose 5-15 µM
MGC-803 [14] = assay: Induction of autophagy in human MGC-803 cells assessed as increase in LC3B protein expression incubated for 48 hrs by Western blot analysis; format: functional, cell-based; settings: dose 10-20 µM
HGC-27 [15] = assay: Induction of apoptosis in LC3B knockout human HGC-27 cells assessed as increase in cleaved PARP level at 15 uM by Western blot analysis; format: functional, cell-based
MGC-803 [16] = assay: Induction of apoptosis in LC3B knockout human MGC-803 cells assessed as increase in cleaved PARP level at 20 uM by Western blot analysis; format: functional, cell-based
MGC-803 [17] = assay: Downregulation of BMX protein expression in human MGC-803 cells incubated for 48 hrs by Western blot analysis; format: functional, cell-based; settings: dose 10-20 µM
[18] = biological target: Cytoplasmic tyrosine-protein kinase BMX (Homo sapiens) (UniProt P51813); assay: Irreversible inhibition of BMX in human HGC-27 cells at 15 uM preincubated for 48 hrs followed by compound washout and measured within 6 hrs by Western blot analysis; format: cell-based
MGC-803 [19] = assay: Inhibition of AKT-mTOR signaling in human […] cells assessed as decrease in phosphorylated AKT expression at 10 to 20 uM incubated for 48 hrs by Western blot analysis; format: cell-based; settings: dose 10-20 µM
[20] = biological target: Tyrosine-protein kinase BTK (Homo sapiens, UniProt Q06187); assay: Inhibition of BTK (unknown origin) in presence of ATP at Km concentration
[21] = biological target: Tyrosine-protein kinase ITK/TSK (Homo sapiens, UniProt Q08881); assay: Inhibition of ITK (unknown origin) in presence of ATP at Km concentration
[22] = biological target: Receptor tyrosine-protein kinase erbB-4 (Homo sapiens, UniProt Q15303); assay: Inhibition of HER4 (unknown origin) in presence of ATP at Km concentration
[23] = Cmax in Sprague-Dawley rat at 5 mg/kg, po or 5 mg/kg, iv measured after 24 hrs by LC-MS/MS analysis; format: ADME, organism-based; settings: in vivo
[24] = Tmax in Sprague-Dawley rat at 5 mg/kg, po or 5 mg/kg, iv measured after 24 hrs by LC-MS/MS analysis; format: ADME, organism-based; settings: in vivo
[25] = Half-life in Sprague-Dawley rat at 5 mg/kg, po or 5 mg/kg, iv measured after 24 hrs by LC-MS/MS analysis; format: ADME, organism-based; settings: in vivo
[26] = Metabolic stability in human liver microsomes assessed as intrinsic clearance at 100 uM measured upto 60 mins in presence of NADPH by LC-MS/MS analysis; format: ADME, Microsome; settings: read-out: CLH
Cytochrome P450 1A2 = Cytochrome P450 1A2 (Homo sapiens, UniProt P05177); assay: Inhibition of CYP1A2 in human liver microsomes using phenacetin as substrate preincubated for 5 mins followed by NADPH addition and measured after 10 mins by LC-MS/MS analysis; format: ADME, Microsome
Cytochrome P450 2C9 = Cytochrome P450 2C9 (Homo sapiens, UniProt P11712); assay: Inhibition of CYP2C9 in human liver microsomes using tolbutamide as substrate preincubated for 5 mins followed by NADPH addition and measured after 10 mins by LC-MS/MS analysis; format: ADME, Microsome
Cytochrome P450 3A4 = Cytochrome P450 3A4 (Homo sapiens, UniProt P08684); assay: Inhibition of CYP3A4 in human liver microsomes using testosterone as substrate preincubated for 5 mins followed by NADPH addition and measured after 10 mins by LC-MS/MS analysis; format: ADME, Microsome
HGC-27 [27] = assay: Antitumor activity against human HGC-27 cells xenografted in female BALB/c nude mouse model assessed as reduction in tumor weight at 30 mg/kg/day, ip administered for 21 days; format: functional, organism-based; settings: time 21.0 day
PC-9 = assay: cells; settings: Homo sapiens, PC-9, 72 h
Description: Anticancer activity against human PC-9 cells assessed as inhibition of cell proliferation incubated for 72 hrs by MTT assay

NCI-H1975 = assay: cells; settings: Homo sapiens, NCI-H1975, 72 h
Description: Anticancer activity against human NCI-H1975 cells assessed as inhibition of cell proliferation incubated for 72 hrs by MTT assay

HCC827 = assay: cells; settings: Homo sapiens, HCC827, 72 h
Description: Anticancer activity against human HCC827 cells assessed as inhibition of cell proliferation incubated for 72 hrs by MTT assay

Tyrosine-protein kinase ITK/TSK, sequence (Q08881 whole entry): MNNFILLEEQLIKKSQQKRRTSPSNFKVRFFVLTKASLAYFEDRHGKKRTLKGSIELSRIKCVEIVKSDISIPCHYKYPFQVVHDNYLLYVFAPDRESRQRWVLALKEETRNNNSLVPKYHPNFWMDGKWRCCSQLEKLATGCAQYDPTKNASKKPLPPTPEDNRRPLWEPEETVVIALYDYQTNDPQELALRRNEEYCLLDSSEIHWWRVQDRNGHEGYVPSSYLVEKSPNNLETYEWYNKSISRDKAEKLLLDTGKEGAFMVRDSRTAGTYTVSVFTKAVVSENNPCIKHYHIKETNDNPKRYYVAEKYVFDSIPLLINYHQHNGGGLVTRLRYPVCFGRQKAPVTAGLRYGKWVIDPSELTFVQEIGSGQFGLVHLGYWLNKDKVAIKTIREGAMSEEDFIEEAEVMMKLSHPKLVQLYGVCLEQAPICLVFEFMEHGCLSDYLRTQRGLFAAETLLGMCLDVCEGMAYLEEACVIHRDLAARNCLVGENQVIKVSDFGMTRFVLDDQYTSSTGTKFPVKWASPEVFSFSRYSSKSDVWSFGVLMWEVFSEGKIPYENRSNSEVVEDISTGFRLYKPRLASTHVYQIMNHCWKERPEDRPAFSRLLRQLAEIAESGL
Cytoplasmic tyrosine-protein kinase BMX (Homo sapiens), sequence (P51813 whole entry): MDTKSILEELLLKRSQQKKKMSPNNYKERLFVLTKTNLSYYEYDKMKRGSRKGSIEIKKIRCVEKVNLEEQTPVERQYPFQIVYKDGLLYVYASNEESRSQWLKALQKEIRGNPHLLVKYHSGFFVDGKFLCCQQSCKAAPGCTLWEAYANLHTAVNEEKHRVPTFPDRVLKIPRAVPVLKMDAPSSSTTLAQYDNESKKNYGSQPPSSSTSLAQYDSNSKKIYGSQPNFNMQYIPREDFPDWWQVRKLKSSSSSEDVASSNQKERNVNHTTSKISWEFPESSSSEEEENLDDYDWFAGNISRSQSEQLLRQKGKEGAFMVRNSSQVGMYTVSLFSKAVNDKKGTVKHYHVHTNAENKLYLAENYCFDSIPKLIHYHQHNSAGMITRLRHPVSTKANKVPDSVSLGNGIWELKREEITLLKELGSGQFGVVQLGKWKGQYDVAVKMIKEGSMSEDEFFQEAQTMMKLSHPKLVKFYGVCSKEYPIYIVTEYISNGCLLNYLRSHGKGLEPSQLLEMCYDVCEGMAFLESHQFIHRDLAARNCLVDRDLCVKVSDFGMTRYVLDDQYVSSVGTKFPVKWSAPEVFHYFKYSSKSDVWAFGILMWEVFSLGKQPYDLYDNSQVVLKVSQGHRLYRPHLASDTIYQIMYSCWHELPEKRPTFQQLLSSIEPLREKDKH
Cytochrome P450 3A4, sequence (P08684 whole entry): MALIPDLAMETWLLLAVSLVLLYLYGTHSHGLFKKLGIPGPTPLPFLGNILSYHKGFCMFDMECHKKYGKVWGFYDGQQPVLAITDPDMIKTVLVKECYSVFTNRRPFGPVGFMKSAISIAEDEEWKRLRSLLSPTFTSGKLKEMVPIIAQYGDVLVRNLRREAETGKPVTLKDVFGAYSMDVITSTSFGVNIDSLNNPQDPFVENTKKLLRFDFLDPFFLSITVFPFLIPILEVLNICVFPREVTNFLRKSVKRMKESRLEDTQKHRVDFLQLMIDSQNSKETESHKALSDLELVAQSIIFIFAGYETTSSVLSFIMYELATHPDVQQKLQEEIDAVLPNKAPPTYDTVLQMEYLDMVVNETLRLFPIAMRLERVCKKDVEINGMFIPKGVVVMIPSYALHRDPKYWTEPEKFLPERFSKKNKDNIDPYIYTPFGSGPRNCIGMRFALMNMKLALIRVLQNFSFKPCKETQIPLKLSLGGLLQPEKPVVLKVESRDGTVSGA
Tyrosine-protein kinase BTK, sequence (Q06187 whole entry): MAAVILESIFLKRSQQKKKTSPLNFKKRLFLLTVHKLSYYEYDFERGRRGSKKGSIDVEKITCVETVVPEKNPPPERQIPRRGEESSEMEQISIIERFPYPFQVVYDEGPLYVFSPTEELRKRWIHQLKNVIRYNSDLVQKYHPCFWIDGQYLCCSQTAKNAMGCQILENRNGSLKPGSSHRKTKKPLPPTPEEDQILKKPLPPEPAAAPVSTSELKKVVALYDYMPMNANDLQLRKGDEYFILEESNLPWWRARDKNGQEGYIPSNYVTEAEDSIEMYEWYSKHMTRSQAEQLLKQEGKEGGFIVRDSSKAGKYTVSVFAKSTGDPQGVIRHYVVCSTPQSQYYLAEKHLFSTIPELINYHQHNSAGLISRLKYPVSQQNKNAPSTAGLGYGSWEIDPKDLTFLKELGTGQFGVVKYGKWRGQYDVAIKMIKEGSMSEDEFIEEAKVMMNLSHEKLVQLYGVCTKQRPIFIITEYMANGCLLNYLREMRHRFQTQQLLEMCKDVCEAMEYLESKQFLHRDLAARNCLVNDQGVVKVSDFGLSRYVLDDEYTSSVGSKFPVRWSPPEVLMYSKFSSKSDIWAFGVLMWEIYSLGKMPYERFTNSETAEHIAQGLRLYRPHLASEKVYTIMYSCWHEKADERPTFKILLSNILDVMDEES
Receptor tyrosine-protein kinase erbB-4, sequence (Q15303 whole entry): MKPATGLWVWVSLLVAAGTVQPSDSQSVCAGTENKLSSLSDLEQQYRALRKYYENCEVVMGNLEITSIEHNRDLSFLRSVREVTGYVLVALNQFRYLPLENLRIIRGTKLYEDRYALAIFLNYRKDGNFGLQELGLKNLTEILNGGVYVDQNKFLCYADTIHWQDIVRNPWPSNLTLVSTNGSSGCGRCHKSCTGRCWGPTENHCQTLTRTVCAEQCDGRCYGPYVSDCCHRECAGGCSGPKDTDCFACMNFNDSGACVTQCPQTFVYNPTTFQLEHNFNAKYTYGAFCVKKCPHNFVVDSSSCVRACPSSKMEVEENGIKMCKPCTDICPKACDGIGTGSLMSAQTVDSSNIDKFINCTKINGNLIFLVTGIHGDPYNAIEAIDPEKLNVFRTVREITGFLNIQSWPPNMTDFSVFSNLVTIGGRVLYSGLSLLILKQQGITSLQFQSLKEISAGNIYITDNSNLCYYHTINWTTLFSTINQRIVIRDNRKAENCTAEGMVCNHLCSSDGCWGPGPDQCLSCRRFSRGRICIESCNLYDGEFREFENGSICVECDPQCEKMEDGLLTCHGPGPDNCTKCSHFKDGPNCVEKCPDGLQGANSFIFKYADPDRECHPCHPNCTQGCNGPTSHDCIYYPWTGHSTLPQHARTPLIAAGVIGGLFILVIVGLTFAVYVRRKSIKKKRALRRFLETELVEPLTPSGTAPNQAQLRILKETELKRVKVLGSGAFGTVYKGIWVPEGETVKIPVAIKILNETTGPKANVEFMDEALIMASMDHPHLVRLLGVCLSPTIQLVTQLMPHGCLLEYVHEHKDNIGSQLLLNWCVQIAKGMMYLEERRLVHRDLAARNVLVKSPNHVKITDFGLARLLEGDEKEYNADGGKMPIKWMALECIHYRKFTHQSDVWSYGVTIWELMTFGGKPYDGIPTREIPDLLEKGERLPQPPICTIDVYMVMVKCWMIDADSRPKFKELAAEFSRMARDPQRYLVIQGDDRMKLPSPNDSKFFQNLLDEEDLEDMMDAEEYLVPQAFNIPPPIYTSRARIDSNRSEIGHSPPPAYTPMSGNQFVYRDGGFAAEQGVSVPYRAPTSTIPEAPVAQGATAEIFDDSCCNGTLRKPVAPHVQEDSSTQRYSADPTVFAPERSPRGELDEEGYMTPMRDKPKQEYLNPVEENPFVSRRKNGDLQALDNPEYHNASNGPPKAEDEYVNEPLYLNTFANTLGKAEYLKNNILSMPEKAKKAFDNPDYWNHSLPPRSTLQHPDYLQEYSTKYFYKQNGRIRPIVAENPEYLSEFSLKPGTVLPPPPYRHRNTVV
Cytochrome P450 1A2, sequence (P05177 whole entry): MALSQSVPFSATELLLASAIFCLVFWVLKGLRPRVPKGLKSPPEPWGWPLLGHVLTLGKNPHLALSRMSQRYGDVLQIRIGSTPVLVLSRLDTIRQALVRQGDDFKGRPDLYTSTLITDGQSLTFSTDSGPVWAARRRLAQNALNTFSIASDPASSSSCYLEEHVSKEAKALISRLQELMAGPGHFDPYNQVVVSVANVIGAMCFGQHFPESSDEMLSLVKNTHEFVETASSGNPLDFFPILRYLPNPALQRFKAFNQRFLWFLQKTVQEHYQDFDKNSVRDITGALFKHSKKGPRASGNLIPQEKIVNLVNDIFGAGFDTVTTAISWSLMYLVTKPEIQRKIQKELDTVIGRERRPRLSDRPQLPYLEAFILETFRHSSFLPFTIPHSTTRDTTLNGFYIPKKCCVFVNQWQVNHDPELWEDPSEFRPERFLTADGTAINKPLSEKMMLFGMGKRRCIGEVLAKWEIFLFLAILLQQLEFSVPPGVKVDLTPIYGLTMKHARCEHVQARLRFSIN
Cytochrome P450 2C9, sequence (P11712 whole entry): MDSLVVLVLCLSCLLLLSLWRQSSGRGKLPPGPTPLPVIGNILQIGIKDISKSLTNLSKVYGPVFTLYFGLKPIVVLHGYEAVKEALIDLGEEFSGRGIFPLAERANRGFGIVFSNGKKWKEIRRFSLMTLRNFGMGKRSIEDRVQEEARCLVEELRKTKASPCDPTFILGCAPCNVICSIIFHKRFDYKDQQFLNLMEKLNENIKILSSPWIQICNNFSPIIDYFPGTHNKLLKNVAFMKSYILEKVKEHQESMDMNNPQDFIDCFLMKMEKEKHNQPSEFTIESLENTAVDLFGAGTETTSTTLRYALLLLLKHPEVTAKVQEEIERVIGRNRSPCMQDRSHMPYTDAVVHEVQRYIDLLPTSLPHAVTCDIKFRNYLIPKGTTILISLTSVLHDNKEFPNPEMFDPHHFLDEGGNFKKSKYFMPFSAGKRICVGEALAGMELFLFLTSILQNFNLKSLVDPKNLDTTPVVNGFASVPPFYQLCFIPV

With C=CS(=O)(=O)N1CCC[C@@H](Nc2nc(N)nc(Nc3cccc(Oc4ccccc4)c3)n2)C1 the Activity (HGC-27 [1]) was “Active”, the pIC50 (HGC-27 [2]) was 5.02 and the pIC50 (MGC-803 [3]) was 4.84. For the same compound, the pIC50 (MDA-MB-231) was 4.71, the pIC50 (HONE1 cell line) was 4.80 and the pIC50 (C6661) was 4.83. For the same compound, the pIC50 (HCT-116) was 4.80, the Activity (HGC-27 [4]) was “Dose-dependent-effect” and the Activity (MGC-803 [5]) was “Time-dependent-effect”. The Activity (HGC-27 [6]) was “Dose-dependent-effect”, the Activity (MGC-803 [7]) was “Dose-dependent-effect” and the Activity (MGC-803 [8]) was “Active”. The Activity (HGC-27 [9]) was “Active”, the Activity (MGC-803 [10]) was “Active” and the Activity (HGC-27 [11]) was “Dose-dependent-effect”. The Activity (MGC-803 [12]) was “Active”, the Activity (HGC-27 [13]) was “Dose-dependent-effect” and the Activity (MGC-803 [14]) was “Dose-dependent-effect”. The Activity (HGC-27 [15]) was “Active”, the Activity (MGC-803 [16]) was “Active” and the Activity (MGC-803 [17]) was “Dose-dependent-effect”. For the same compound, the inhibition [18] was “Active”, the inhibition (MGC-803 [19]) was “Active” and the pIC50 [20] was 6.73. It also gave a pIC50 [21] of under 6.00, a pIC50 [22] of under 6.00 and a Cmax [23] of 73.5 ng/mL. It also gave a Tmax [24] of 6 min, a half-life [25] of 18.3 h and a microsomal CLint at 100 µM [26] of 214 µL/min/mg. It also gave a pIC50 (Cytochrome P450 1A2) of under 4.00, a pIC50 (Cytochrome P450 2C9) of 4.77 and a pIC50 (Cytochrome P450 3A4) of under 4.00. For the same compound, the Activity (HGC-27 [27]) was “Active”, the pIC50 (PC-9) was 4.63 and the pIC50 (NCI-H1975) was 5.30. It also gave a pIC50 (HCC827) of 5.24.
